Data published in patent publication US10292976B2, “Anti-malarial agent” (RIKEN, priority 2014, dated 2019).
Where two headings read alike, the source gives them in different places.

How the values were obtained:
[1] = test system: Plasmodium falciparum: 3D7 strain; assay: Antimalarial activity by LDH assay, 3D7 strain; assay type: cell-based; conditions: for IC50: Plasmodium falciparum
Protocol: Compounds that chelate metal ions in various modes (L1 to L25 in FIG. 1) were selected, and their antimalarial activities were evaluated by LDH assay. Since infection with malaria causes an increase in the LDH activity, the evaluation can be made based on the criteria that the lower the detected LDH activity, the higher the antimalarial activity.
(§1) The LDH assay was carried out according to the following procedure. That is, 0.5 μL of a solution of each compound in DMSO was added to 100 μL of a culture liquid of erythrocytes (88% RPMI solution; 2% erythrocytes, provided by the Japanese Red Cross Society; and 10% human serum, provided by the Japanese Red Cross Society) infected with falciparum malaria parasites (Plasmodium falciparum: 3D7 strain) (infection rate of erythrocytes, 0.3%). The resulting culture liquid was subjected to culture in a 96-well plate under an atmosphere of 5% CO2, 5% O2, and 90% N2 at 37° C. for three days. Subsequently, the culture liquid was cooled at −80° C. for three hours, and then returned to room temperature. After addition of 150 μL of an LDH enzyme reaction liquid (0.15 mg/mL diaphorase, 37.5 μL/mL of 50% sodium lactate, 0.17 mg/mL NBT, 0.11 mg/mL APAD, 0.16 mL/mL of 1 M Tris-HCl (pH 8), and 8.3 μL/mL of Tween 20), the absorbance at 620 nm was measured.
By the same procedure as in Experiment 1, erythrocytes infected with malaria were treated with L6 (about 40 nM) together with iron ion (about 50 μM), copper ion (about 1 μM), or zinc ion (about 10 μM), and the antimalarial activity was evaluated by LDH assay.
(§2) According to the same procedure as in Experiment 1, the antimalarial activities of metal complexes (M-L6) synthesized by mixing various kinds of metal ions (MSO4: M=Zn, Fe, Cu, Co, Ni, or Mn) with L6 at a molar ratio of 1:1 were evaluated by LDH assay.

[2] = test system: drug-resistant malaria parasite K1 strain; assay: Antimalarial activity by LDH assay, K1 strain; assay type: cell-based, Plasmodium falciparum; conditions: Plasmodium falciparum
Protocol: as §1, §2
According to the same procedure as in Experiment 1, the antimalarial activities of L18 and di-2-pyridylketone 4,4-dimethyl-3-thiosemicarbazone (Sigma) against the malaria parasite 3D7 strain and the drug-resistant malaria parasite K1 strain were evaluated by LDH assay.
According to the same procedure as in Experiment 1, the antimalarial activities of 4′-(4-Pyridyl)-2,2′:6′,2″-terpyridine (Tokyo Chemical Industry) against the malaria parasite 3D7 strain and the drug-resistant malaria parasite K1 strain were evaluated by LDH assay.

[3] = test system: Dd2 strain (drug-resistant malaria parasites); assay: Antimalarial activity by LDH assay, Dd2 strain; assay type: cell-based, Plasmodium falciparum; conditions: Plasmodium falciparum
[4] = test system: chloroquine-resistant strain; assay: Antimalarial activity against a chloroquine-resistant strain; assay type: cell-based; conditions: result in words
[5] = Cytotoxicity by WST-8 assay, HEK293T; assay type: cell-based; conditions: human, HEK293T cells
Protocol: (§3) After treating various kinds of cells (HEK293T: human embryonic kidney cells; HeLa: human cervical cancer cells; NIH3T3: mouse fibroblast cells; tsNRK: rat kidney cells; and 3Y1: rat fibroblasts) with a metal chelator for 48 hours, the cytotoxicities of the cells were evaluated by WST-8 assay.

[6] = Cytotoxicity by WST-8 assay, HeLa; assay type: cell-based, human; conditions: human, HeLa cells
Protocol: as §3
(§4) Subsequently, the following cell types: HL60 (human promyelocytic leukemia cells), HeLa (human cervical cancer cells), C3H10T1/2 (murine multipotential mesenchymal cells), and HEK293 (human embryonic kidney 293 cells); were treated with metal complexes M-L6 (M=Zn, Fe, Cu, Co, Ni, and Mn) for 48 hours, and then subjected to WST-8 assay to perform evaluation of the cytotoxicity of each kind of metal complex.

[7] = Cytotoxicity by WST-8 assay, NIH3T3; assay type: cell-based; conditions: mouse, NIH3T3 cells, NIH3T3, 48 hours
Protocol: as §3

[8] = Cytotoxicity by WST-8 assay, tsNRK; assay type: cell-based; conditions: rat, tsNRK cells
Protocol: as §3

[9] = Cytotoxicity by WST-8 assay, 3Y1; assay type: cell-based; conditions: rat, 3Y1 cells, 3Y1, 48 hours
Protocol: as §3

[10] = Cytotoxicity by WST-8 assay, HL60; assay type: cell-based, human; conditions: human, HL60 cells, Table 3, 48 hours
Protocol: as §4

[11] = Cytotoxicity by WST-8 assay, C3H10T1/2; assay type: cell-based, murine; conditions: mouse, C3H10T1/2 cells, Table 3, 48 hours
Protocol: as §4

[12] = Cytotoxicity by WST-8 assay, HEK293; assay type: cell-based, human; conditions: human, HEK293 cells, Table 3, 48 hours
Protocol: as §4

[13] = test system: human cells (HEK293T and HeLa); assay: Cytotoxicity by WST-8 assay, summary for human cells; assay type: cell-based; conditions: 48 hours, read-out: concentration at which toxicity is exerted (IC50 value)
Protocol: as §3

[14] = test system: mouse malaria parasites (Plasmodium berghei ANKA strain); assay: Effect to suppress malaria infection in malaria-infected mice; assay type: in vivo; conditions: Balb/c mice, 20 mg/kg intraperitoneal injection, Day 2 to Day 6 after infection
Protocol: (§5) To mice (7 weeks old, Balb/c, male), erythrocytes infected with mouse malaria parasites (Plasmodium berghei ANKA strain) (total number of erythrocytes per mouse, about 10^7; rate of malaria-infected erythrocytes, 0.3%) were intraperitoneally injected. L6 was administered (20 mg/kg, intraperitoneal injection) to each of the thus obtained malaria-infected mice, and the rate of malaria-infected erythrocytes was measured. As a result, on Day 2 to Day 6 after the infection, the infection rate tended to increase in the negative control to which only DMSO was administered. […] The effect of L6 to reduce the infection rate was almost equivalent to the effect of an existing drug, chloroquine (CQ).

[15] = test system: mouse malaria parasites (Plasmodium berghei ANKA strain); assay: Life-prolonging effect after infection with malaria, intraperitoneal; assay type: in vivo; conditions: malaria-infected mice, 20 mg/kg intraperitoneal injection
[16] = test system: mouse malaria parasites (Plasmodium berghei ANKA strain); assay: Life-prolonging effect in malaria-infected mice, oral administration; assay type: in vivo; conditions: oral 200 mg/kg on Day 1, Day 3, and Day 6
Protocol: as §5
To malaria-infected mice obtained by the same procedure as in Experiment 4, an aqueous solution of L6 or the zinc complex Zn-L6 was orally administered (at a dose of 200 mg/kg on Day 1, Day 3, and Day 6; N=6), and changes in the number of surviving individuals were investigated. […] That is, it is thought that, by formation of metal complex with zinc ion, L6 can remarkably suppress the toxicity in vivo while sufficiently maintaining the antimalarial activity.

SMILES: c1ccc(CN(Cc2ccccn2)Cc2ccccn2)nc1 [L6, Tris(2-pyridylmethyl)amine]
- antimalarial activity (LDH assay, FIG. 2) ([1]; 10 nM to 10 μM, result in words): remarkable antimalarial activity
- antimalarial activity of L6 together with added metal ion ([1]; L6 about 40 nM with excess zinc ion (about 10 μM)): suppression of the antimalarial activity was found to some extent
- IC50 ([1]; 3D7, 3D7 strain, values in text, read-out: IC50 value for the antimalarial activity based on the LDH assay): ~31 nM
- IC50 ([1]; 3D7, read-out: IC50 antimalarial activity, 3D7): 84 nM
- IC50 ([2]; read-out: IC50 antimalarial activity against the K1 strain): 80 to 160 nM
- IC50 ([2]; read-out: IC50 antimalarial activity, K1): 82 nM
- IC50 ([3]; DD2, read-out: IC50 antimalarial activity against the Dd2 strain): 80 to 160 nM
- IC50 ([3]; DD2, read-out: IC50 antimalarial activity, Dd2): 144 nM
- antimalarial activity against a chloroquine-resistant strain [4]: exhibit antimalarial activity also against a chloroquine-resistant strain
- IC50 at 48 h ([5]; 1st measurement): 5080 nM
- IC50 at 48 h ([5]; 2nd measurement): 5310 nM
- IC50 at 48 h ([6]; HeLa, 48 hours, 1st measurement (Table 1), read-out: IC50 value, cytotoxicity): 5610 nM
- IC50 at 48 h ([6]; HeLa, 48 hours, 2nd measurement (Table 1), read-out: IC50 value, cytotoxicity): 5160 nM
- IC50 at 48 h ([6]; Table 3, 48 hours, WST-8, read-out: IC50 cytotoxicity, HeLa): 5800 nM
- IC50 at 48 h ([7]; 1st measurement): 1800 nM
- IC50 at 48 h ([7]; 2nd measurement): 1950 nM
- IC50 at 48 h ([8]; 1st measurement): 1880 nM
- IC50 at 48 h ([8]; 2nd measurement): 1900 nM
- IC50 at 48 h ([9]; 1st measurement): 2420 nM
- IC50 at 48 h ([9]; 2nd measurement): 3870 nM
- IC50 at 48 h [10]: 1800 nM
- IC50 at 48 h [11]: 5700 nM
- IC50 at 48 h [12]: 6000 nM
- IC50 [13]: 5080 to 5610 nM
- rate of malaria-infected erythrocytes (infection rate) [14]: infection rate could be remarkably suppressed
- life-prolonging effect (number of surviving individuals) [15]: remarkable life-prolonging effect
- toxicity in vivo [16]: influence of toxicity appears
